Assay results: patent US20110306664A1, “MEDICAL DIETARY COMPOSITION FOR TREATING NEURODEGENERATIVE DISEASES” (SOFEDUS S.R.L., priority 2008, published 2011)
Like-named read-outs stand apart in the source and are kept apart here.

Columns and labels:
[1] = CSF fatty acid analysis (passage of the blood-brain barrier); assay type: in vivo, human; details: humans, given as LO+CLA
Method: At baseline and during the 3rd visit, aliquots of cerebrospinal fluid (CSF) were collected by lumbar puncture in all patients. Blood and CSF samples were centrifuged and stored at −80° C., until analyses.
The CSF samples were analysed for fatty acid composition, in order to verify whether CLA and erucic acid are able to pass, and to what extent, the blood-brain barrier.
Total lipids were extracted from plasma or CSF using chloroform/methanol 2:1 (v/v) (Folch J, Lees M, Sloane-Stanley GH. A simple method for the isolation and purification of total lipid from animal tissues. J. Biol. Chem. 1957; 226: 497-509). Separation of phospholipids from total lipids was performed as previously reported (Banni S, Carta G, Angioni E, Murru E, Scanu P, Melis MP, et al. Distribution of conjugated linoleic acid and metabolites in different lipid fractions in the rat liver. J Lipid Res 2001; 42: 1056-1061.). […]
Since saturated fatty acids are transparent to UV, they were measured, after methylation, by means of a gas chromatograph (Agilent, Model 6890, Palo Alto, Calif.) equipped with split ratio of 20:1 injection port, a flame ionization detector (FID), an autosampler (Agilent, Model 7673), a 100 m HP-88 fused capillary column (Agilent), and an Agilent ChemStation software system. […]

[2] = animal models, incorporated in the brain (Fa 2005); cited from earlier work
[3] = rat brain (Golovko and Murphy 2006); cited from earlier work
[4] = in the long run (Kramer et al.); cited from earlier work

Row | Molecule | passage of CLA through the blood-brain barrier [1] | passage through the blood-brain barrier [2] | passage through the blood-brain barrier [3] | myocardial lipidosis [4]
1 | conjugated linoleic acid [CLA] | prompt entry of CLA through the blood-brain barrier in humans | capable of passing through the blood-brain barrier | – | –
2 | CCCCCCCC/C=C\CCCCCCCCCCCC(=O)O [erucic acid] | – | – | hardly passes through the blood-brain barrier | cause in the long run myocardial lipidosis
